In ChEMBL document CHEMBL1144755, “Co-existence of alpha-glucosidase-inhibitory and liver X receptor-regulatory activities and their separation by structural development” (Bioorg Med Chem, 2008) one finds Activity and IC50 data, which are given here for 21 compounds.

The structures appear in SMILES notation. Calls of active or inactive are those of the source. No cut-off for these calls is given here.

Experiment [1] in a line: Agonist activity at LXR. In kind it is functional.
Experiment [2] in a line: Inhibition of Saccharomyces sp. alpha-glucosidase.
The target of experiment [3] is T1, Oxysterols receptor LXR-beta (Homo sapiens, UniProt P55055).
T1 sequence (P55055 whole entry): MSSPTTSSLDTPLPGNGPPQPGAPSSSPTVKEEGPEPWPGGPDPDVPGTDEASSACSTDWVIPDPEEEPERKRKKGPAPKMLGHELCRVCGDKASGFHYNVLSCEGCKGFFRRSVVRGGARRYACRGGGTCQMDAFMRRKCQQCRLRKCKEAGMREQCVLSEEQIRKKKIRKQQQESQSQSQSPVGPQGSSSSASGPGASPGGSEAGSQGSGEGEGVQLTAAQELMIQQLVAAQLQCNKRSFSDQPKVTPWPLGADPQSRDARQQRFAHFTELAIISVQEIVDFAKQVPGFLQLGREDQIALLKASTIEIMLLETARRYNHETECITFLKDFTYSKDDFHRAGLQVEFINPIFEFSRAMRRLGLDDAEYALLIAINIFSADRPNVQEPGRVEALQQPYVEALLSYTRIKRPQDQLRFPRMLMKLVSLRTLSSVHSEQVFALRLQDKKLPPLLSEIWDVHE
In words: Antagonist activity at human recombinant LXRbeta expressed in HEK293 cells by luciferase reporter gene assay. Format: functional, cell-based. On the technique in general: In a reporter assay the amount or activity of a reporter protein is the signal.

The target of experiment [4] is T2, Oxysterols receptor LXR-alpha (Homo sapiens, UniProt Q13133).
T2 sequence (Q13133 whole entry): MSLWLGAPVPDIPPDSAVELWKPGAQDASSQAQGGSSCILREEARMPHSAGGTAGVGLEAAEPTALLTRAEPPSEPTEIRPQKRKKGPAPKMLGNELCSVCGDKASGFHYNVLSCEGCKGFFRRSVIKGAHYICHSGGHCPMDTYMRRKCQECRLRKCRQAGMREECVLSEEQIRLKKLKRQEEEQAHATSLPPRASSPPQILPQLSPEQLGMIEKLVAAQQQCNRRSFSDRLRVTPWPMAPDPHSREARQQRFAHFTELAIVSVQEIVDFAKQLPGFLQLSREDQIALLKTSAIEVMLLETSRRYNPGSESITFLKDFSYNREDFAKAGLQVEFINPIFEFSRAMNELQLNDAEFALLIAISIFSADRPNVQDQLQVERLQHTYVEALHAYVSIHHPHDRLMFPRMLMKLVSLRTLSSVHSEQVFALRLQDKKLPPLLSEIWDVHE
In words: Antagonist activity at human recombinant LXRalpha expressed in HEK293 cells by luciferase reporter gene assay. In kind it is functional, cell-based.

On to `O=S(=O)(c1ccccc1)N(CC(F)(F)F)c1ccc(C(O)(C(F)(F)F)C(F)(F)F)cc1` [T091317], for which, in experiment [1], the result was inactive. The same compound returned a half-maximal inhibitory concentration (IC50) in experiment [2] of 100 µM.
Consider `CCCCCCc1ccccc1N1C(=O)c2ccccc2C1=O`, for which the outcome in experiment [1] was inactive. In experiment [2], this compound returned an IC50 of 24.7 µM.
The matching figures for `O=C(O)Cc1cccc(OCCCN(Cc2cccc(C(F)(F)F)c2Cl)CC(c2ccccc2)c2ccccc2)c1`: “inactive” and 4.8 µM.
Take `O=c1c(-c2ccc(O)cc2)coc2cc(O)cc(O)c12` [GENISTEIN]: the outcome in experiment [1] was inactive. Besides, the IC50 in experiment [3] worked out at 22 µM; in experiment [4] it was 31 µM; in experiment [2], 100 µM.
In the case of `COc1ccc2c(c1)CCc1ccc(cc1)Oc1cc(ccc1OC)CCc1ccc-2c(OC)c1`, in experiment [1], the outcome was inactive. Besides, the results for the IC50 in experiment [3], in experiment [4] and in experiment [2] were 14 µM, 2 µM and 49 µM, respectively.
Consider `c1cc2cc(c1)Oc1ccc(cc1)CCc1ccccc1-c1ccc(cc1)CC2` [DEOXYRICCARDIN C], for which, in experiment [1], the result was inactive. Moreover, the concentration for half-maximal inhibition (IC50) in experiment [3] came out at 77 µM; in experiment [4], 7.1 µM; in experiment [2], 18 µM.
In the same order, the values of `COc1ccc2cc1Oc1ccc(cc1)CCc1ccccc1-c1ccc(cc1OC)CC2` are “inactive”, 12 µM, 2.2 µM and 42 µM.
Take `Oc1cc2ccc1-c1ccccc1CCc1ccc(cc1)Oc1cccc(c1)CC2`: the result in experiment [1] was inactive. The 50% inhibitory concentration (IC50) amounted to 7.3 µM in experiment [3], 3.2 µM in experiment [4] and 19 µM in experiment [2].
Consider `CC(C)c1cccc(C(C)C)c1N1C(=O)c2ccccc2C1=S`, for which, in experiment [1], the result was inactive. Moreover, the results for the IC50 in experiment [3], in experiment [4] and in experiment [2] were 18 µM, 3.1 µM and 8 µM, respectively.
On to `Oc1ccc2c(c1)CCc1ccc(cc1)Oc1cccc(c1)CCc1ccc-2c(O)c1`, for which the result in experiment [1] was inactive. Besides, the figures for the IC50 in experiment [3], in experiment [4] and in experiment [2] were 10 µM, 8.4 µM and 5.1 µM, respectively.
Turning to `Oc1ccc2cc1Oc1ccc(cc1)CCc1ccccc1-c1ccc(cc1O)CC2`, the outcome in experiment [1] was inactive. In addition, the IC50 in experiment [3] worked out at 13 µM; in experiment [4], 6.6 µM; in experiment [2], 8.6 µM.
The matching figures for `Oc1ccc2c(c1)CCc1ccc(cc1)Oc1cc(ccc1O)CCc1ccc-2cc1`: “inactive”, 7.6 µM, 4.4 µM and 4.9 µM.
Turning to `O=C1c2ccccc2C(=O)N1c1ccccc1CCc1ccccc1`, the outcome in experiment [1] was inactive. The compound further came in with an IC50 in experiment [2] of 16.2 µM.
Consider `Oc1ccc2cc1Oc1ccc(cc1)CCc1ccccc1-c1ccc(cc1)CC2`, for which the outcome in experiment [1] was inactive. Also, the concentration for half-maximal inhibition (IC50) in experiment [3] turned out to be 14 µM; in experiment [4] it was 5.7 µM; in experiment [2] it was 15 µM.
For the compound `CC(C)CC[C@@H](O)[C@@H](C)[C@H]1CC[C@H]2[C@@H]3CC=C4C[C@@H](O)CC[C@]4(C)[C@H]3CC[C@]12C` [22(R)-HYDROXYCHOLESTEROL], in experiment [1], the result was inactive. This compound also returned an IC50 in experiment [2] of 100 µM.
For `COc1ccc2cc1Oc1ccc(cc1)CCc1ccccc1-c1ccc(cc1)CC2`, the outcome in experiment [1] was inactive. The IC50 in experiment [3] is 41 µM; in experiment [4], 7.6 µM; in experiment [2], > 100 µM.
As for `COc1ccc2c(c1)CCc1ccc(cc1)Oc1cccc(c1)CCc1ccc-2c(OC)c1`, the result in experiment [1] was inactive. Further, the IC50 in experiment [3] is 46 µM; in experiment [4], 25 µM; in experiment [2], > 30 µM.
The matching figures for `OC[C@H]1NC[C@H](O)[C@@H](O)[C@@H]1O` [DUVOGLUSTAT]: “inactive”, > 100 µM, > 100 µM and 250 µM.
The matching figures for `COc1ccc2c(c1)CCc1ccc(cc1)Oc1cc(ccc1OC)CCc1ccc-2cc1`: “inactive”, 26 µM, 3.6 µM and 40 µM.
With `Oc1ccc2c(c1)CCc1ccc(cc1)Oc1cc(ccc1O)CCc1ccc-2c(O)c1` [RICCARDI C], the outcome in experiment [1] was inactive. Further, the IC50 in experiment [3] stood at 6.6 µM; in experiment [4], 4.9 µM; in experiment [2], 9.9 µM.
`COc1cc2ccc1-c1ccccc1CCc1ccc(cc1)Oc1cccc(c1)CC2`: the result in experiment [1] was inactive. In addition, the IC50 in experiment [3] amounted to 11 µM; in experiment [4], 2.5 µM; in experiment [2], 67 µM.

As a reminder, the IC50 is the midpoint of a concentration-inhibition curve.
